Reference: patent US20230391745A1, “SMALL MOLECULE DEGRADERS OF THE BROMODOMAIN AND PHD FINGER TRANSCRIPTION FACTOR” (Regents of the University of Minnesota, priority 2022, published 2023)

Assays:
[1] = biological target: T1, Nluc-BPTF-BD fusion construct (Homo sapiens, UniProt Q12830+Q96SW2); assay: In-cell NanoBRET CRBN ternary complex assay with Nluc-BPTF-BD; format: cell-based; details: for BRET ratio, fold increase over DMSO (in-cell ternary complex formation): 1 μM degrader, C-terminal Nluc-BPTF-BD fusion, HEK293T cells; for Ternary complex formation with C-terminal Nluc/BPTF-BD fusion construct / Ternary complex formation with N-terminal Nluc/BPTF-BD fusion construct: 1 μM for 2 h, HEK293T cells pre-treated with MG-132
T1 construct: form ternary complexes with nanoluciferase-fused BPTF bromodomain and full-length BRD9 constructs; expressed in transfected cells; host or cells: HEK293T
T1 sequence (Q16531 whole entry, the tested form may be a part): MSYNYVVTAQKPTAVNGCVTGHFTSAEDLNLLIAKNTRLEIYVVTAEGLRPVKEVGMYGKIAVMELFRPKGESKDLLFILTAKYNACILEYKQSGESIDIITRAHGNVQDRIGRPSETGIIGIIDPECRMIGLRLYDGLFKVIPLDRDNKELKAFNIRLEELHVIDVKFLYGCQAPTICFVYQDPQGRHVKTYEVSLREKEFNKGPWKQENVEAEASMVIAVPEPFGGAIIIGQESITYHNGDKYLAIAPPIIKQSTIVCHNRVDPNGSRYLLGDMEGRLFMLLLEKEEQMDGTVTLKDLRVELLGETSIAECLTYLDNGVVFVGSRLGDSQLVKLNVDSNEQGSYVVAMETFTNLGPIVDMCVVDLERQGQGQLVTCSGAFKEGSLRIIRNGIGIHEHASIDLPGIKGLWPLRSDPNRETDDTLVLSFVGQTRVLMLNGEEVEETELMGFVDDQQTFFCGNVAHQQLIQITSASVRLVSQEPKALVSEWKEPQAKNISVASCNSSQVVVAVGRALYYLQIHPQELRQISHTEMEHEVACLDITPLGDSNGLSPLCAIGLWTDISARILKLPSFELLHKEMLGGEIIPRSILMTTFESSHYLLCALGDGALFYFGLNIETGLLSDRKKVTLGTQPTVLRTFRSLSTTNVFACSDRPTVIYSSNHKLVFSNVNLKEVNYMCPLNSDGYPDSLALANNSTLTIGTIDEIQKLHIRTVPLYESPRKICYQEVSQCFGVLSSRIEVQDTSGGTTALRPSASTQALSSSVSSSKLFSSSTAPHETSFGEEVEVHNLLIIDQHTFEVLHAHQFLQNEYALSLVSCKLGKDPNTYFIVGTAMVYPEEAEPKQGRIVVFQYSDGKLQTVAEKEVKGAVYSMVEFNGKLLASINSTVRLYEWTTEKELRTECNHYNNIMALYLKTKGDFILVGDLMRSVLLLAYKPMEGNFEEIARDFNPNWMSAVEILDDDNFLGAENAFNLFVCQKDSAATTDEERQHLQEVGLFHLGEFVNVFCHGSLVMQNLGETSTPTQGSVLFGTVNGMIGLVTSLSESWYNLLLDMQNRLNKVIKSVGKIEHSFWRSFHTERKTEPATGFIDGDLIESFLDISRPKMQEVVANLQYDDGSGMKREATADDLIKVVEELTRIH
T1 sequence (Q96SW2 whole entry, the tested form may be a part): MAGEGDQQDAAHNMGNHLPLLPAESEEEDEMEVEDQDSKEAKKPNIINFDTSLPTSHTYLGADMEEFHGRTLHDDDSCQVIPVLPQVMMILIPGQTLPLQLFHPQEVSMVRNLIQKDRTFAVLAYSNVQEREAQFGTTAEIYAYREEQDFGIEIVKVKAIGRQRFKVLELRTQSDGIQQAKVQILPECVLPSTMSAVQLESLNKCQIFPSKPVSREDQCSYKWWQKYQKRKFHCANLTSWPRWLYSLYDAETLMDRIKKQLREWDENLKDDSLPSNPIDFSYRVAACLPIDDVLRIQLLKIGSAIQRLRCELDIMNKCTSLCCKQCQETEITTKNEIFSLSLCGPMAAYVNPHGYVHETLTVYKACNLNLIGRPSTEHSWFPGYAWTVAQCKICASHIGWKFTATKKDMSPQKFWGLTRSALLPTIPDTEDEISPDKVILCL
Experimental: In-cell NanoBRET assay. NanoBRET experiments were carried out using the NanoBRET CRBN Ternary Complex Starter Kit (Cat #ND2720) according to the manufacturer's protocol (Promega NanoBRET™ CRBN Ternary Complex Assay TM615).^38 All assays were run in 384-well format. HEK293T cells were transfected to a 1:100 donor:acceptor (Nluc:Halotag vectors) ratio for both BPTF-BD and BRD9-FL vectors (see supporting information for the design of plasmids). Cells were re-plated, treated with the HaloTag 618 Ligand and treated with compounds as described in the manufacturer's procedure.
Cell culture. HEK293T cells were grown in a humidified 5% CO2 environment at 37° C. Cells were cultured in DMEM media (high-glucose, Gibco Cat. #11965-092) supplemented with 10% fetal-bovine serum (Cellgro Cat. #QB-110-001-101), Penicillin-Streptomycin (50 U/mL penicillin, 50 μg/mL streptomycin, Cellgro Cat. #15140-122). The cells were passaged to a 1:20 dilution by decanting suspended cells and dissociating adherent cells from cell culture flasks in 0.25% trypsin/EDTA (Gibco, Cat. #25200056) after 1 min incubation.
In-cell ternary complex formation and degradation of BPTF-BD via NanoBRET. After establishing in vitro ternary complex formation, a NanoBRET ternary complex assay was optimized to rank-order degraders in cells (FIG. 4A). This assay also serves as an indirect indicator of cellular permeability, which is often a major challenge for heterobifunctional degraders. Both N- and C-terminal fusions of Nanoluciferase (Nluc) and BPTF-BD with 11-amino acid linkers were designed. The vectors were transfected into HEK293T cells and compounds 4 and 5 were dosed at 1 μM for 2 h in cells pre-treated with the proteosome inhibitor MG-132. […] The C-terminal Nluc-BPTF-BD fusion construct was therefore used for subsequent experiments. Degraders were tested for ternary complex formation at 1 μM (FIG. 4B).

CECR2 bromodomain = biological target: T2, CECR2 bromodomain (Homo sapiens, UniProt Q9BXF3); assay: AlphaScreen assay with CECR2 bromodomain and biotinylated histone H4 KAc5,8,12,16 peptide; format: binding; details: AlphaScreen; average of two technical replicates with N = 2 unless otherwise indicated; read-out: CECR2 BD IC50
T2 construct: His; purchased Reaction Biology RD-11-210
T2 sequence (Q9BXF3 434-538 limits assumed): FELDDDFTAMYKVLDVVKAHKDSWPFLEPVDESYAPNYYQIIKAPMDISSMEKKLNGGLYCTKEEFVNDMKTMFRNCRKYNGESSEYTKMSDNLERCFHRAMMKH

[2] = biological target: T3, Nluc-BRD9-FL fusion construct (Homo sapiens, UniProt Q96SW2+Q9H8M2); assay: In-cell NanoBRET CRBN ternary complex assay with full-length BRD9; details: HEK293T cells
T3 sequence (Q9H8M2 whole entry, the tested form may be a part): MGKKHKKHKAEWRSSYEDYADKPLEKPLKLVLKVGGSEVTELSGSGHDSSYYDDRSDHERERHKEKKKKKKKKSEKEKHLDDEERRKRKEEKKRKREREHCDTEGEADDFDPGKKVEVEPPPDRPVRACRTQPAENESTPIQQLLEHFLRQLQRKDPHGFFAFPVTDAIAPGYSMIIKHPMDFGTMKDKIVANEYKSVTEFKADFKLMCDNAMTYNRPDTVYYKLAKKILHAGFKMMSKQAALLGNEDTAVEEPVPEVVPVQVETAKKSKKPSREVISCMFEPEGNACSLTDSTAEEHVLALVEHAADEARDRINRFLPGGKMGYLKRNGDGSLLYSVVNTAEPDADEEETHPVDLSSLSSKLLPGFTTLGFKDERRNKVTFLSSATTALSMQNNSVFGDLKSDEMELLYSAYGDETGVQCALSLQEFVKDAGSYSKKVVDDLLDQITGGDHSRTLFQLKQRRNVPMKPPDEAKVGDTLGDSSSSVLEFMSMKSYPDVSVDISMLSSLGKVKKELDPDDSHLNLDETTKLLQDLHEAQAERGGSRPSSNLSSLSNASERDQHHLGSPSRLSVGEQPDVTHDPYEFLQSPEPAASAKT
T3 sequence (Q96SW2 whole entry, the tested form may be a part): as the sequence (Q96SW2 whole entry, the tested form may be a part) above
T3 sequence (Q16531 whole entry partner, the tested form may be a part): as the sequence (Q16531 whole entry, the tested form may be a part) above
Description: (§4) In-cell ternary complex formation and degradation of full-length BRD9 via NanoBRET. […] Degradation of the Nluc-BRD9-FL construct was monitored under similar conditions as our BPTF study.

[3] = biological target: T4, GST-BRD9 and His-tagged CRBN-DDB1 (Homo sapiens, UniProt Q96SW2+Q9H8M2); assay: In vitro AlphaScreen ternary complex assay, BRD9; format: binding; details: GST-BRD9, His-CRBN-DDB1, varying degrader concentrations
T4 construct: GST-tagged bromodomains (BPTF, BRD9, CECR2 and PCAF) and His-tagged CRBN; purchased Reactive Biology Corp RD-11-187
T4 sequence (Q96SW2 40-442 limits assumed, one chain of several): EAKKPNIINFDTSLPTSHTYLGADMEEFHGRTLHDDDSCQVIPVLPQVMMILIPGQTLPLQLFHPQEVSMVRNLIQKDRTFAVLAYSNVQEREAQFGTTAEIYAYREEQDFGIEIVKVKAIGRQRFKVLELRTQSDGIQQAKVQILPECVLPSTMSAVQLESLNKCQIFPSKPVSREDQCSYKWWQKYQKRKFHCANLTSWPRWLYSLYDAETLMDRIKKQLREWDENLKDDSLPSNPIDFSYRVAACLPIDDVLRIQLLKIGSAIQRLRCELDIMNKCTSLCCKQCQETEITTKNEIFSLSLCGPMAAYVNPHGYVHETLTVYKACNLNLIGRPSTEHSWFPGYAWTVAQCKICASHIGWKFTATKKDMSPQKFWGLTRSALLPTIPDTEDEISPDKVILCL
T4 sequence (Q16531 whole entry partner, one chain of several): as the sequence (Q16531 whole entry, the tested form may be a part) above
Experimental: General procedure for in vitro ternary complex assay. His-tagged CRBN-DDB1 protein was prepared following the procedure reported by Matyskiela et al. GST-BPTF was purchased from BPS Biosciences (cat #31134), while GST-BRD9, GST-CECR2, and GST-PCAF were purchased from Reactive Biology Corp (cat #RD-11-187, cat #RD-11-194, and cat #RD-11-259 respectively). All reagents were diluted in assay buffer comprising 25 mM HEPES, pH 7.4, 100 mM NaCl, 0.1% BSA, and 0.05% tween20. An ECHO 650 (Labcyte Inc.) acoustic dispenser was used to generate a 10-point dilution curve from DMSO stocks of the degraders directly into a 384-well OptiPlate (PerkinElmer, Cat. #6007290) giving a final DMSO concentration of 0.3%. […]
Briefly, to a 384-well OptiPlate containing 5× degrader in triplicate was added 5 μL of a 5× solution of His-CRBN-DDB1 and GST-tagged bromodomain and then incubated at rt for 1 h. […] The plate was sealed and mixed on a MixMate (eppendorf) for 1 h at rt and then luminescence detection was collected on an Envision plate reader (PerkinElmer).
In vitro ternary complex formation via AlphaScreen. […] The AlphaScreen signal was measured at varying degrader concentrations and the amplitude of the maximum point on the curve was used as an indicator of ternary complex stability.

[4] = biological target: T5, GST-PCAF and His-tagged CRBN-DDB1 (Homo sapiens, UniProt Q92831+Q96SW2); assay: In vitro AlphaScreen ternary complex assay, PCAF; format: binding; details: His-CRBN-DDB1, varying degrader concentrations
T5 construct: GST-tagged bromodomains (BPTF, BRD9, CECR2 and PCAF) and His-tagged CRBN; purchased Reactive Biology Corp RD-11-259
T5 sequence (Q92831 723-827 limits assumed): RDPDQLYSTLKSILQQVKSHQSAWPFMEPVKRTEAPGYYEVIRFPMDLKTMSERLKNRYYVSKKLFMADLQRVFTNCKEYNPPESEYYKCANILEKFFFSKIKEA
T5 sequence (Q96SW2 40-442 limits assumed): as the sequence (Q96SW2 40-442 limits assumed, one chain of several) above
T5 sequence (Q16531 whole entry partner): as the sequence (Q16531 whole entry, the tested form may be a part) above
Experimental: (§1) General procedure for in vitro ternary complex assay. His-tagged CRBN-DDB1 protein was prepared following the procedure reported by Matyskiela et al. GST-BPTF was purchased from BPS Biosciences (cat #31134), while GST-BRD9, GST-CECR2, and GST-PCAF were purchased from Reactive Biology Corp (cat #RD-11-187, cat #RD-11-194, and cat #RD-11-259 respectively). All reagents were diluted in assay buffer comprising 25 mM HEPES, pH 7.4, 100 mM NaCl, 0.1% BSA, and 0.05% tween20. An ECHO 650 (Labcyte Inc.) acoustic dispenser was used to generate a 10-point dilution curve from DMSO stocks of the degraders directly into a 384-well OptiPlate (PerkinElmer, Cat. #6007290) giving a final DMSO concentration of 0.3%. AlphaScreen glutathione coated donor and nickel chelate acceptor beads were purchased from PerkinElmer (Cat. #6765300 and 6760141 respectively).
(§2) Briefly, to a 384-well OptiPlate containing 5× degrader in triplicate was added 5 μL of a 5× solution of His-CRBN-DDB1 and GST-tagged bromodomain and then incubated at rt for 1 h. After incubation, 10 μL nickel chelate acceptor (20 μL/mL final concentration) and 10 μL glutathione donor beads (20 μL/mL final concentration) were added. The plate was sealed and mixed on a MixMate (eppendorf) for 1 h at rt and then luminescence detection was collected on an Envision plate reader (PerkinElmer).
(§3) In vitro ternary complex formation via AlphaScreen. The stability of the ternary complex is critical for degradation by heterobifunctional molecules. A ternary complex formation in vitro using an AlphaScreen-based assay (FIG. 3A) was therefore studied. In this experiment, anti-GST donor beads and nickel acceptor beads were paired with GST-tagged bromodomains (BPTF, BRD9, CECR2 and PCAF) and His-tagged CRBN. The AlphaScreen signal was measured at varying degrader concentrations and the amplitude of the maximum point on the curve was used as an indicator of ternary complex stability.

[5] = biological target: T3, Nluc-BRD9-FL fusion construct; assay: Degradation of Nluc-BRD9-FL construct by total donor luminescence; details: similar conditions as BPTF study (1 μM, 6 h), HEK293T cells
Description: as §4

BRD9 bromodomain = biological target: T6, BRD9 bromodomain (Homo sapiens, UniProt Q9H8M2); assay: AlphaScreen assay with BRD9 bromodomain and biotinylated histone H4 KAc5,8,12,16 peptide; format: binding; details: AlphaScreen; average of two technical replicates with N = 2 unless otherwise indicated; read-out: BRD9 BD IC50
T6 construct: His; purchased Reaction Biology RD-11-214
T6 sequence (Q9H8M2 136-240 limits assumed): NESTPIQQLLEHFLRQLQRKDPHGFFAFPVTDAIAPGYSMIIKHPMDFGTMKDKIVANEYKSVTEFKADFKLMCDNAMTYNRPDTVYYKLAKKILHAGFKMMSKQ

BPTF bromodomain = biological target: T7, BPTF bromodomain (Homo sapiens, UniProt Q12830); assay: AlphaScreen assay with BPTF bromodomain and biotinylated histone H4 KAc5,8,12,16 peptide; format: binding; details: average of two technical replicates with N = 3 unless otherwise indicated, read-out: BPTF BD IC50
T7 construct: His9-tagged BPTF bromodomain was expressed and purified as described previously; His9; made in house
Experimental: General procedure for AlphaScreen assay. His9-tagged BPTF bromodomain was expressed and purified as described previously. […] The AlphaScreen assay procedures were adapted from the manufacturers protocol (PerkinElmer, USA). […] The biotinylated Histone H4 KAc5,8,12,16 peptide was purchased from EpiCypher (Cat. #12-0034), with the sequence:
Ac-SGRGK(Ac)GGK(Ac)GLGK(Ac)GGAK(Ac)RHRKVLR-Peg(Biot).
All reagents were diluted in the assay buffer (50 mM HEPES-Na^+ (ChemImpex), 100 mM NaCl (SigmaAldrich), 0.05% CHAPS (RPI), 0.1% BSA (SigmaAldrich), pH 7.4).
3-fold serial dilutions were prepared with varying concentrations of the compounds and a fixed protein concentration, keeping the final DMSO concentration at 0.25%. […] 5 μL of the biotinylated peptide solution was then added to the wells. 10 μL of pre-mixed nickel chelate acceptor beads and streptavidin donor beads were added to each well under low light conditions (<100 lux), to a final concentration of 20 μg/mL. The plate was sealed and incubated for 30 minutes in the dark. It was then read in AlphaScreen mode (excitation time=100 ms, integration time=300 ms, output: counts/s) using a Tecan Spark plate reader. Each compound was run in two technical replicates and the data was normalized against 0 μM inhibitor signal to obtain the % normalized AlphaScreen signal. IC50 values were calculated in GraphPad Prism 9 using a sigmoidal 4-parameter logistic (4PL) curve fit.
To validate our chosen exit vectors, an AlphaScreen assay was used to measure binding affinity of our degraders with the BPTF bromodomain.

[6] = biological target: T8, GST-CECR2 and His-tagged CRBN-DDB1 (Homo sapiens, UniProt Q96SW2+Q9BXF3); assay: In vitro AlphaScreen ternary complex assay, CECR2; format: binding; details: GST-CECR2, His-CRBN-DDB1, varying degrader concentrations
T8 construct: GST-tagged bromodomains (BPTF, BRD9, CECR2 and PCAF) and His-tagged CRBN; purchased Reactive Biology Corp RD-11-194
T8 sequence (Q9BXF3 434-538 limits assumed): as the sequence (Q9BXF3 434-538 limits assumed) above
T8 sequence (Q96SW2 40-442 limits assumed): as the sequence (Q96SW2 40-442 limits assumed, one chain of several) above
T8 sequence (Q16531 whole entry partner): as the sequence (Q16531 whole entry, the tested form may be a part) above
Experimental: as §1, §2, §3

Compound | BRET ratio, fold increase over DMSO (in-cell ternary complex formation) [1] | Ternary complex formation with C-terminal Nluc/BPTF-BD fusion construct [1] | Ternary complex formation with N-terminal Nluc/BPTF-BD fusion construct [1] | IC50 (CECR2 bromodomain) | BRET ratio, fold over DMSO control (in-cell ternary complex formation) [2] | Ternary complex formation with BRD9 (AlphaScreen signal amplitude) [3] | Ternary complex formation with PCAF (AlphaScreen signal amplitude) [4] | Degradation of the Nluc-BRD9-FL construct [5] | IC50 (BRD9 bromodomain) | IC50 (BPTF bromodomain) | Ternary complex formation with CECR2 (AlphaScreen signal amplitude) [6]
Cn1ncc(Nc2ccc3c(c2)CN(CCCCCCNC(=O)COc2cccc4c2C(=O)N(C2CCC(=O)NC2=O)C4=O)CC3)c(Cl)c1=O (stereo not shown) [Compound 4, N-(6-(7-((5-chloro-1-methyl-6-oxo-1,6-dihydropyridazin-4-yl)amino)-3,4-dihydroisoquinolin-2(1H)-yl)hexyl)-2-((2-(2,6-dioxopiperidin-3-yl)-1,3-dioxoisoindolin-4-yl)oxy)acetamide] | 3.2 fold | showed ternary complex formation | did not | 485 nM | ~2 fold | promiscuous | promiscuous | caused degradation of full-length BRD9, comparable to the dBRD9 control | 98 nM | 158 ± 55 nM | promiscuous
Cn1ncc(Nc2ccc3c(c2)CCN(CCOCCOCCNC(=O)COc2cccc4c2C(=O)N(C2CCC(=O)NC2=O)C4=O)C3)c(Cl)c1=O (stereo not shown) [Compound 5, N-(2-(2-(2-(6-((5-chloro-1-methyl-6-oxo-1,6-dihydropyridazin-4-yl)amino)-3,4-dihydroisoquinolin-2(1H)-yl)ethoxy)ethoxy)ethyl)-2-((2-(2,6-dioxopiperidin-3-yl)-1,3-dioxoisoindolin-4-yl)oxy)acetamide] | 2.3 fold | showed ternary complex formation | did not | 225 nM |  |  | less stable ternary complexes | caused degradation of full-length BRD9, comparable to the dBRD9 control | 63 nM | 70 ± 23 nM | less stable ternary complexes
Cn1ncc(Nc2ccc3c(c2)CN(CCOCCOCCNC(=O)COc2cccc4c2C(=O)N(C2CCC(=O)NC2=O)C4=O)CC3)c(Cl)c1=O (stereo not shown) [Compound 6, N-(2-(2-(2-(7-((5-chloro-1-methyl-6-oxo-1,6-dihydropyridazin-4-yl)amino)-3,4-dihydroisoquinolin-2(1H)-yl)ethoxy)ethoxy)ethyl)-2-((2-(2,6-dioxopiperidin-3-yl)-1,3-dioxoisoindolin-4-yl)oxy)acetamide] | 1.6 fold |  |  | 1460 nM |  |  | less stable ternary complexes |  | 18 nM | 121 ± 38 nM | less stable ternary complexes
CN(C)CCCOc1ccc(-c2cc(NCCCn3cccn3)nc(S(C)(=O)=O)n2)cc1 [Compound 7, TP-238, reference compound] |  |  |  | 33 nM |  |  |  |  |  | 430 nM | 
